Measured values published in US20260327191A1, “GSK3a INHIBITORS AND METHODS OF USE THEREOF” (Blueprint Medicines Corporation, priority 2023, published 2026).

Experiments:
human GSK3α = molecular target: T1, human GSK3α (Homo sapiens, UniProt P49840); assay: In vitro enzymatic activity assay, GSK3α; type: biochemical; details: 1.0 mM ATP, 1.0 μM peptide substrate, 120 min, 25° C, read-out: Enzyme GSK3α (IC50)
T1 construct: Full length human GSK3α or GSK3B expressed as N-terminal GST fusion proteins; GST (N); purchased Carna Biosciences (Japan); host or cells: baculovirus host
T1 sequence (P49840 whole entry, the tested form may be a part): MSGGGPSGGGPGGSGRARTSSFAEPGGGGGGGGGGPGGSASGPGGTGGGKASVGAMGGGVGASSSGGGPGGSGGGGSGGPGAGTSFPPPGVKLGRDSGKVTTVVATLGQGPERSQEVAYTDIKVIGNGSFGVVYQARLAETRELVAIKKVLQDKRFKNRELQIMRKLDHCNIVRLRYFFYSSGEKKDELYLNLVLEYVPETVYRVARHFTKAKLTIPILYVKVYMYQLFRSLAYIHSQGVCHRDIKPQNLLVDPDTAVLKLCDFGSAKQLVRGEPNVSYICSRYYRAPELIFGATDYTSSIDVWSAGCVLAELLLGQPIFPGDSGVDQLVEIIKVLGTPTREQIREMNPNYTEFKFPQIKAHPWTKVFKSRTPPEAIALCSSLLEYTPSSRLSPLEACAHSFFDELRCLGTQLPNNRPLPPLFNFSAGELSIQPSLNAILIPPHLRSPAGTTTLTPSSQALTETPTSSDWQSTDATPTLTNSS
Protocol: (§1) Full length human GSK3α or GSK3B expressed as N-terminal GST fusion proteins in baculovirus host were purchased from Carna Biosciences (Japan). The kinase was pre-incubated with ATP (adenosine-5′-triphosphate) for 45 min, then incubated with tested compounds for another 45 min in assay buffer that contains 100 mM HEPES (N-2-hydroxyethylpiperazine-N′-2-ethanesulfonic acid), pH 7.5, 10 mM MgCl2, 1.0 mM DTT, and 0.015% Briji-35. […] Percent inhibition was plotted against compound concentration to generate 10-point dose response curve with 3-fold serial dilution starting from 10 μM. IC50 value was determined from the 4-parameter logistic curve fitting.

GSK3A = molecular target: T2, GSK3A (Homo sapiens, UniProt P49840); assay: NanoBRET cellular target engagement assay, Nanoluc-GSK3A in HEK293 cells; type: cell-based; details: NanoBRET GSK3α IC50, HEK293 cells, tracer K-8, 2 hours, 37° C
T2 construct: expressed in transfected cells
T2 sequence (P49840 whole entry): as the sequence (P49840 whole entry, the tested form may be a part) above
Protocol: (§2) In the assay, HEK293 cells stably expressing either Nanoluc-GSK3A or Nanoluc-GSK3B were maintained in culture media and seeded, using a multidrop dispenser, at a density of 5×10^3 cells per well in 384-well white plates with 100 ng/ml doxycycline (Sigma) overnight.
(§3) Compound was first diluted in DMSO to generate a 9-point serial dilution then diluted to 10× final concentration in Opti-MEM™ (Gibco). After overnight incubation, cell medium was aspirated from the seeded cells using a microplate automatic washer, then 27 μL of pre-warmed Opti-MEM™ with kinase tracer (K-8) and 3 μL of Opti-MEM™ diluted DMSO or compounds were added per well. Plates were protected from light, mixed in an orbital shaker for 3 min at RT and incubated at 37° C., 5% CO2 in a humidified incubator for 2 hours. After acclimation at RT for 15 min, 15 μL of 3× complete NanoBRET™ Nano-Glo Substrate/Inhibitor (Promega) was added per well. Plates were mixed in an orbital shaker for 3 min at RT and incubated for an additional 30 min. Donor emission at 460 nm and acceptor emission at 647 nm were measured in EnVision multilabel plate reader (Perkin Elmer).

GSK3B [1] = molecular target: T3, GSK3B (Homo sapiens, UniProt P49841); assay: NanoBRET cellular target engagement assay, Nanoluc-GSK3B in HEK293 cells; type: cell-based; parameters: expressed in transfected cells; details: NanoBRET GSK3β IC50, HEK293 cells, tracer K-8, 2 hours, 37° C
T3 sequence (P49841 whole entry): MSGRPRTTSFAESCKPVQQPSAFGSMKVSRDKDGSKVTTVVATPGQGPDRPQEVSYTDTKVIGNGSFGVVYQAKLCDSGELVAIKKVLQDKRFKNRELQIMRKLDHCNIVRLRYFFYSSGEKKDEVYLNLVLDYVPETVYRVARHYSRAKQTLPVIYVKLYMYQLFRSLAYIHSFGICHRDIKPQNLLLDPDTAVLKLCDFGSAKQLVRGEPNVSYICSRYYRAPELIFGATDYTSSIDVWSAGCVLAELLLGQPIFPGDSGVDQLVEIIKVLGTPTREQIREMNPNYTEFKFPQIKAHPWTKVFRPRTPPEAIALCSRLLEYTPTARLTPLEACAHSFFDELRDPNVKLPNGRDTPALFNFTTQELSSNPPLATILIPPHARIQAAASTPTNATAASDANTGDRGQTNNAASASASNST
Protocol: as §2, §3

GSK3B [2] = molecular target: T3, GSK3B; assay: In vitro enzymatic activity assay, GSK3β; type: biochemical; parameters: Full length human GSK3α or GSK3B expressed as N-terminal GST fusion proteins; GST (N); purchased Carna Biosciences (Japan); host or cells: baculovirus host; details: 1.0 mM ATP, 1.0 μM peptide substrate, 120 min, 25° C, read-out: Enzyme GSK3β (IC50)
Protocol: as §1

| SMILES | IC50 (human GSK3α) [nM] | IC50 (GSK3A) [nM] | IC50 (GSK3B [1]) [nM] | IC50 (GSK3B [2]) [nM] |
| --- | --- | --- | --- | --- |
| COC[C@@H](N)c1cccc(NC(=O)c2c(N)ncn(-c3c(Cl)cccc3C(F)F)c2=O)c1 (atropisomer, axis not shown) [Example 7, (S)-4-amino-N-(3-(1-amino-2-methoxyethyl)phenyl)-1-((S)-2-chloro-6-(difluoromethyl)phenyl)-6-oxo-1,6-dihydropyrimidine-5-carboxamide] | 7.5 | 7.1 | 480 | 337 |
| COc1cc(C)c(-n2cnc(N)c(C(=O)Nc3cccc([C@@H]4CCCN4)c3)c2=O)c(Cl)c1 (atropisomer, axis not shown) [Example 36, (S)-4-amino-1-((S)-2-chloro-4-methoxy-6-methylphenyl)-6-oxo-N-(3-(pyrrolidin-2-yl)phenyl)-1,6-dihydropyrimidine-5-carboxamide] | 7.3 | 4.4 | 290 | 302 |
| [2H]C([2H])([2H])NC(C)c1cncc(NC(=O)c2c(N)ncn(-c3c(C)cc(OC)cc3Cl)c2=O)c1 (single isomer, unassigned) [Example 4, (R)-4-amino-1-((S)-2-chloro-4-methoxy-6-methylphenyl)-N-(5-(1-((methyl-d3)amino)ethyl)pyridin-3-yl)-6-oxo-1,6-dihydropyrimidine-5-carboxamide or (S)-4-amino-1-((S)-2-chloro-4-methoxy-6-methylphenyl)-N-(5-(1-((methyl-d3)amino)ethyl)pyridin-3-yl)-6-oxo-1,6-dihydropyrimidine-5-carboxamide] | 3.7 | 1.4 | 109 | 187 |
| CNC(C)c1cncc(NC(=O)c2c(N)ncn(-c3c(Cl)cc(C#N)cc3Cl)c2=O)c1 (single isomer, unassigned) [Example 9, (R)-4-amino-1-(2,6-dichloro-4-cyanophenyl)-N-(5-(1-(methylamino)ethyl)pyridin-3-yl)-6-oxo-1,6-dihydropyrimidine-5-carboxamide or (S)-4-amino-1-(2,6-dichloro-4-cyanophenyl)-N-(5-(1-(methylamino)ethyl)pyridin-3-yl)-6-oxo-1,6-dihydropyrimidine-5-carboxamide] | 9.5 | 7.4 | 430 | 661 |
| CNC(C)c1cncc(NC(=O)c2c(N)ncn(-c3c(Cl)cc(Cl)cc3Cl)c2=O)c1 (single isomer, unassigned) [Example 12, (R)-4-amino-N-(5-(1-(methylamino)ethyl)pyridin-3-yl)-6-oxo-1-(2,4,6-trichlorophenyl)-1,6-dihydropyrimidine-5-carboxamide or (S)-4-amino-N-(5-(1-(methylamino)ethyl)pyridin-3-yl)-6-oxo-1-(2,4,6-trichlorophenyl)-1,6-dihydropyrimidine-5-carboxamide] | 3.8 | 2.4 | 141 | 199 |
| Cc1cc(C(F)CF)cc(C)c1-n1cnc(N)c(C(=O)Nc2cncc([C@H]3CCCCN3)c2)c1=O (single isomer, unassigned) [Example 111, 4-amino-1-(4-((R)-1,2-difluoroethyl)-2,6-dimethylphenyl)-6-oxo-N-(5-((R)-piperidin-2-yl)pyridin-3-yl)-1,6-dihydropyrimidine-5-carboxamide or 4-amino-1-(4-((S)-1,2-difluoroethyl)-2,6-dimethylphenyl)-6-oxo-N-(5-((R)-piperidin-2-yl)pyridin-3-yl)-1,6-dihydropyrimidine-5-carboxamide] | 3 | 2 |  |  |

Now from value to compound:

| IC50 (human GSK3α) [nM] | IC50 (GSK3A) [nM] | IC50 (GSK3B [1]) [nM] | IC50 (GSK3B [2]) [nM] | SMILES |
| --- | --- | --- | --- | --- |
| 3.6 | 3.6 | 243 | 168 | COC[C@@H](N)c1cccc(NC(=O)c2c(N)ncn(-c3c(C)cc(OC)cc3Cl)c2=O)c1 (atropisomer, axis not shown) [Example 1, (S)-4-amino-N-(3-(1-amino-2-methoxyethyl)phenyl)-1-((S)-2-chloro-4-methoxy-6-methylphenyl)-6-oxo-1,6-dihydropyrimidine-5-carboxamide] |
| 7 | 4.9 | 329 | 399 | CN[C@H](C)c1cccc(NC(=O)c2c(N)ncn(-c3c(C)cc(OC)cc3Cl)c2=O)c1 (atropisomer, axis not shown) [Example 2, (R)-4-amino-1-((S)-2-chloro-4-methoxy-6-methylphenyl)-N-(3-(1-(methylamino)ethyl)phenyl)-6-oxo-1,6-dihydropyrimidine-5-carboxamide] |
| 6.6 | 5 | 395 | 344 | CN[C@H](C)c1cccc(NC(=O)c2c(N)ncn(-c3c(C)cccc3Cl)c2=O)c1 (atropisomer, axis not shown) [Example 3, (R)-4-amino-1-((S)-2-chloro-6-methylphenyl)-N-(3-(1-(methylamino)ethyl)phenyl)-6-oxo-1,6-dihydropyrimidine-5-carboxamide] |
| 4.8 | 3.3 | 169 | 204 | Cc1cc(C#N)cc(Cl)c1-n1cnc(N)c(C(=O)Nc2cccc([C@@H](C)N)c2)c1=O (atropisomer, axis not shown) [Example 8, (R)-4-amino-N-(3-(1-aminoethyl)phenyl)-1-((S)-2-chloro-4-cyano-6-methylphenyl)-6-oxo-1,6-dihydropyrimidine-5-carboxamide] |
| 14.4 | 4.1 | 252 | 648 | CCNCc1cccc(NC(=O)c2c(N)ncn(-c3c(C)cc(C(F)F)cc3Cl)c2=O)c1 (atropisomer, axis not shown) [Example 11, 4-amino-1-((S)-2-chloro-4-(difluoromethyl)-6-methylphenyl)-N-(3-((ethylamino)methyl)phenyl)-6-oxo-1,6-dihydropyrimidine-5-carboxamide] |
| 6.4 | 8.3 | 461 | 343 | CN[C@H](C)c1cccc(NC(=O)c2c(N)ncn(-c3c(C)cc(C(F)(F)F)cc3Cl)c2=O)c1 (atropisomer, axis not shown) [Example 33, 4-amino-1-((S)-2-chloro-6-methyl-4-(trifluoromethyl)phenyl)-N-(3-((R)-1-(methylamino)ethyl)phenyl)-6-oxo-1,6-dihydropyrimidine-5-carboxamide] |
| 4.8 | 2.9 | 257 | 298 | COC[C@@H](N)c1cccc(NC(=O)c2c(N)ncn(-c3c(C)cc(C#N)cc3Cl)c2=O)c1 (atropisomer, axis not shown) [Example 42, (S)-4-amino-N-(3-(1-amino-2-methoxyethyl)phenyl)-1-((S)-2-chloro-4-cyano-6-methylphenyl)-6-oxo-1,6-dihydropyrimidine-5-carboxamide] |
| 6.3 | 4.8 | 353 | 383 | CCOc1cc(C)c(-n2cnc(N)c(C(=O)Nc3cccc([C@@H](C)NC)c3)c2=O)c(Cl)c1 (atropisomer, axis not shown) [Example 71, (R)-4-amino-1-((S)-2-chloro-4-ethoxy-6-methylphenyl)-N-(3-(1-(methylamino)ethyl)phenyl)-6-oxo-1,6-dihydropyrimidine-5-carboxamide] |
| 7.5 | 5.1 | 379 | 468 | CCOc1cc(C)c(-n2cnc(N)c(C(=O)Nc3cccc([C@H](N)COC)c3)c2=O)c(Cl)c1 (atropisomer, axis not shown) [Example 72, (S)-4-amino-N-(3-(1-amino-2-methoxyethyl)phenyl)-1-((S)-2-chloro-4-ethoxy-6-methylphenyl)-6-oxo-1,6-dihydropyrimidine-5-carboxamide] |
| 17.7 | 9.8 | 503 | 1010 | CNC(C)c1cncc(NC(=O)c2c(N)ncn(-c3c(Cl)cc(Cl)cc3Cl)c2=O)c1 (single isomer, unassigned) [Example 13, (S)-4-amino-N-(5-(1-(methylamino)ethyl)pyridin-3-yl)-6-oxo-1-(2,4,6-trichlorophenyl)-1,6-dihydropyrimidine-5-carboxamide or (R)-4-amino-N-(5-(1-(methylamino)ethyl)pyridin-3-yl)-6-oxo-1-(2,4,6-trichlorophenyl)-1,6-dihydropyrimidine-5-carboxamide] |
